Values of other authors in patent publication US8513439B2, “Antidepressant oral pharmaceutical compositions” (Wockhardt Limited, priority 2005, dated 2013).

Key:
[1] = in vivo
dopaminergic receptors = settings: in vitro
histaminergic receptors = settings: in vitro
adrenergic receptors = settings: in vitro
cholinergic receptors = settings: in vitro

SMILES: CNCC[C@H](Oc1cccc2ccccc12)c1cccs1 [Duloxetine, (S)—N-methyl-3-(1-naphthyloxy)-3-(2-thienyl)propan-1-amine]
- enzymes metabolizing to inactive metabolites in the liver [1]: CYP1A2 and CYP2D6
- protein bound [1]: > 90%
- affinity for dopaminergic receptors (dopaminergic receptors): no significant affinity
- affinity for histaminergic receptors (histaminergic receptors): no significant affinity
- dosage hydrolyzed to 1-naphthol (pH of 1.0, within one hour): 50%
- dosage degraded to 1-Naphthol (pH of 2.0, in one hour): 10%
- time for 10% degradation (pH of 4.0): up to 63 hours
- inhibition of monoamine oxidase (MAO) (monoamine oxidase (MAO)): does not inhibit
- affinity for adrenergic receptors (adrenergic receptors): no significant affinity
- affinity for cholinergic receptors (cholinergic receptors): no significant affinity
